Experimental data reported in patent US20240174690A1, “ANNULATED 2-AMINO-3-CYANO THIOPHENES AND DERIVATIVES FOR THE TREATMENT OF CANCER” (BOEHRINGER INGELHEIM INTERNATIONAL GMBH, priority 2021, published 2024).
Where two headings read alike, the source gives them in different places. Blank lines part the entries; values can stand above or below the compound they belong to.

Assays:
[1] = system: SAS cells; test: SAS CTG proliferation assay (120 h) (HNSCC, wt amplified); format: cell-based
Method in brief: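 Viability measured by CellTiter-Glo luminescence, normalized to DMSO wells, after 120 h compound treatment of SAS cells. Cells grown in DMEM:F12 plus 10% FCS at 300 cells per well, dosed the day after seeding. Four-parameter fit gives IC50.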

[2] = Caco-2 assay (permeability PappAB, PappBA, efflux ratio); format: in vitro ADME; details: human, Caco-2, 10 μM test compound, pH 7.4; for efflux ratio at 90 min, 10 μM: efflux ratio PappBA/PappAB, read-out: Caco ER; for Papp A→B at 90 min, 10 μM: apical to basolateral
Method in brief: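 Bidirectional permeability (apical-to-basolateral and reverse) through polarized Caco-2 monolayers, BSA 0.25% on each side, 37 °C. Donor and receiver sampled at 0-90 min after 25-30 min preincubation, analysed by HPLC/MS/MS. Apparent permeabilities derived from transfer rate normalised to area and t=0 donor concentration; ER taken as PappBA over PappAB.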

[3] = system: NCI-H358 cells; test: NCI-H358 CTG proliferation assay (120 h) (NSCLC, G12C); format: cell-based, human; details: Homo sapiens
Method in brief: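 IC50 values derive from four-parameter nonlinear regression of CellTiter-Glo viability (RLU relative to DMSO wells) after 120 h of exposure. Cells were plated in RPMI-1640 + 10% FCS at 2000 per well (assay 1) or 200 per well (assay 2). Untreated cells were measured at compound addition as T0.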

[4] = assay 2, CTG, read-out: H358 (assay 2) IC50

SMILES: C[C@H](Oc1cc(N2CC[C@H](N3CCCCC3)C2)nc(-c2noc3c2CCC[C@@]32CCCc3sc(N)c(C#N)c32)n1)[C@@H]1CCCN1C [II-12]
IC50 [1]: 1920 nM
efflux ratio at 90 min, 10 μM [2]: 12.1

SMILES: C[C@H](Oc1cc(N2CC[C@H](N(C)C)C2)nc(-c2noc3c2CCC[C@@]32CCCc3sc(N)c(C#N)c32)n1)[C@@H]1C[C@@H](F)CN1C [II-15]
IC50 [1]: 1300 nM
efflux ratio at 90 min, 10 μM [2]: 5.3

SMILES: C[C@H](Oc1cc(-n2ccc(C(=O)O)n2)nc(-c2noc3c2CCC[C@@]32CCCc3sc(N)c(C#N)c32)n1)[C@@H]1CCCN1C [II-24]
IC50 [1]: 15600 nM

SMILES: C[C@H](Oc1cc(-c2cnn(C)n2)nc(-c2noc3c2CCC[C@@]32CCCc3sc(N)c(C#N)c32)n1)[C@@H]1C[C@@H](F)CN1C [II-28]
IC50 [1]: 203 nM

SMILES: C[C@H]1CN(C)CCCN1c1cc(N2CCN(C)CC2)nc(-c2noc3c2CCC[C@@]32CCCc3sc(N)c(C#N)c32)n1 [II-30]
IC50 [1]: 10600 nM

SMILES: C[C@H](Oc1cc(N2CCNC(C)(C)C2)nc(-c2noc3c2CCC[C@@]32CCCc3sc(N)c(C#N)c32)n1)[C@@H]1CCCN1C [II-32]
IC50 [1]: 8310 nM
Papp A→B at 90 min, 10 μM [2]: 0.3 ×10⁻⁶ cm/s
efflux ratio at 90 min, 10 μM [2]: 76.6

SMILES: C[C@H](Oc1cc(N2CC3CCC(C2)N3)nc(-c2noc3c2CCC[C@@]32CCCc3sc(N)c(C#N)c32)n1)[C@@H]1CCCN1C [II-34]
IC50 [1]: 1950 nM
Papp A→B at 90 min, 10 μM [2]: 0.4 ×10⁻⁶ cm/s
efflux ratio at 90 min, 10 μM [2]: 37.8

SMILES: C[C@@H]1CN(c2cc(O[C@@H](C)[C@@H]3CCCN3C)nc(-c3noc4c3CCC[C@@]43CCCc4sc(N)c(C#N)c43)n2)C[C@H](C)N1 [II-36]
IC50 [1]: 179 nM

SMILES: C[C@H](Oc1cc([C@H]2CCN(C)C2)nc(-c2noc3c2CCC[C@@]32CCCc3sc(N)c(C#N)c32)n1)[C@@H]1CCCN1C [II-38]
IC50 [1]: 47 nM
Papp A→B at 90 min, 10 μM [2]: 0.2 ×10⁻⁶ cm/s
efflux ratio at 90 min, 10 μM [2]: 104

SMILES: C[C@H](Oc1cc(N2CCN(C)CC2)nc(-c2noc3c2CCC[C@@]32CCCc3sc(N)c(C#N)c32)n1)[C@@H]1CCCN1[C@@H]1CCOC1 [II-39]
IC50 [1]: 2940 nM

SMILES: C[C@H](Oc1cc(-n2ccsc2=O)nc(-c2noc3c2CCC[C@@]32CCCc3sc(N)c(C#N)c32)n1)[C@@H]1CCCN1C [II-135]
IC50 [1]: 69 nM

The next lines start with results.

Papp A→B at 90 min, 10 μM [2]: 1.4 ×10⁻⁶ cm/s
efflux ratio at 90 min, 10 μM [2]: 21.4
SMILES: C[C@H](Oc1cc(N2CCN(C)C3(COC3)C2)nc(-c2noc3c2CCC[C@@]32CCCc3sc(N)c(C#N)c32)n1)[C@@H]1CCCN1C [II-13]
IC50 [1]: 450 nM

Papp A→B at 90 min, 10 μM [2]: 1 ×10⁻⁶ cm/s
efflux ratio at 90 min, 10 μM [2]: 32.3
SMILES: C[C@H](Oc1cc(N2CC[C@H](N3CCCC3)C2)nc(-c2noc3c2CCC[C@@]32CCCc3sc(N)c(C#N)c32)n1)[C@@H]1CCCN1C [II-14]
IC50 [1]: 1670 nM

Papp A→B at 90 min, 10 μM [2]: 0.5 ×10⁻⁶ cm/s
efflux ratio at 90 min, 10 μM [2]: 33.3
SMILES: C[C@H]1CN(C)CCCN1c1cc(N2CC[C@H](N(C)C)C2)nc(-c2noc3c2CCC[C@@]32CCCc3sc(N)c(C#N)c32)n1 [II-16]
IC50 [1]: 3870 nM

IC50 [3, 4]: 134 nM
SMILES: C[C@@H]1CN(c2cc(O[C@@H](C)[C@@H]3C[C@@H](F)CN3C)nc(-c3noc4c3CCC[C@@]43CCCc4sc(N)c(C#N)c43)n2)CC2(CC2)N1 [II-17]
IC50 [1]: 1030 nM

IC50 [3, 4]: 160 nM
SMILES: C[C@H](Oc1cc(N2C[C@H](C)NC3(CC3)C2)nc(-c2noc3c2CCC[C@@]32CCCc3sc(N)c(C#N)c32)n1)[C@@H]1C[C@@H](F)CN1C [II-18]
IC50 [1]: 293 nM

IC50 ([3]; assay 1, CTG, read-out: H358 (assay 1) IC50): 17 nM
IC50 [3, 4]: 2 nM
SMILES: C[C@H](Oc1cc(-n2ccc(C(=O)N3CCCC3)n2)nc(-c2noc3c2CCC[C@@]32CCCc3sc(N)c(C#N)c32)n1)[C@@H]1CCCN1C [II-19]
IC50 [1]: 132 nM

IC50 [3, 4]: 4 nM
SMILES: CCOC(=O)c1ccn(-c2cc(O[C@@H](C)[C@@H]3CCCN3C)nc(-c3noc4c3CCC[C@@]43CCCc4sc(N)c(C#N)c43)n2)n1 [II-23]
IC50 [1]: 222 nM

Papp A→B at 90 min, 10 μM [2]: 1.1 ×10⁻⁶ cm/s
efflux ratio at 90 min, 10 μM [2]: 22.7
SMILES: C[C@H](Oc1cc(-n2ccc(C(=O)NC3COC3)n2)nc(-c2noc3c2CCC[C@@]32CCCc3sc(N)c(C#N)c32)n1)[C@@H]1CCCN1C [II-25]
IC50 [1]: 9 nM

Papp A→B at 90 min, 10 μM [2]: 0.4 ×10⁻⁶ cm/s
efflux ratio at 90 min, 10 μM [2]: 52.3
SMILES: C[C@H](Oc1cc(N2C[C@H]3CN(C)C[C@H]3C2)nc(-c2noc3c2CCC[C@@]32CCCc3sc(N)c(C#N)c32)n1)[C@@H]1CCCN1C [II-33]
IC50 [1]: 597 nM

Papp A→B at 90 min, 10 μM [2]: 0.2 ×10⁻⁶ cm/s
efflux ratio at 90 min, 10 μM [2]: 121
SMILES: C[C@H](Oc1cc([C@@H]2CCN(C)C2)nc(-c2noc3c2CCC[C@@]32CCCc3sc(N)c(C#N)c32)n1)[C@@H]1CCCN1C [II-37]
IC50 [1]: 1250 nM

IC50 [3, 4]: 1520 nM
SMILES: C[C@H](Oc1cc(N2CCNC3(CCCC3)C2)nc(-c2noc3c2CCC[C@@]32CCCc3sc(N)c(C#N)c32)n1)[C@@H]1CCCN1C [II-41]
IC50 [1]: 2110 nM

Papp A→B at 90 min, 10 μM [2]: 0.8 ×10⁻⁶ cm/s
efflux ratio at 90 min, 10 μM [2]: 28.8
SMILES: C[C@H](Oc1nc(-c2noc3c2CCC[C@@]32CCCc3sc(N)c(C#N)c32)cc(N2C[C@H](C)N[C@@H](C)C2)n1)[C@@H]1CCCN1C [II-46]
IC50 [1]: 399 nM
